Data set [1] addresses angiotensin I-converting enzyme (ACE) (Homo sapiens, UniProt P12821). As to the kind of experiment: ACE inhibitory activity assay (HHL substrate, hippuric acid absorbance at 228 nm). The settings on record: for inhibition at 1000 µg/mL: synthetic peptides at 1 mg/ml. The format is biochemical. The method, then: ACE inhibitory activity assay was carried out according to the methods of Cushman and Cheung (1971) and Wu et al. (2002) with some modifications. A reaction mixture containing 50 µl of hydrolysate or peptides, 150 µl of 8.3 mM Hippuryl-L-histidyl-L-leucine (HHL), and 50 µl of ACE (25 mU/ml) was incubated at 37° C. for 1 h. Subsequently, 250 µl of 1 M HCl was added to terminate the reaction. The released hippuric acid (HA) was extracted by adding 2.5 ml ethyl acetate, and the mixture was mixed with a vortex for 1 min and left at room temperature for 1 h. Then, 2 ml of the upper layer was transferred into beaker and dried at 80° C. to remove ethyl acetate. Finally, 1 ml of deionized water was added to dissolve the HA. Absorbance was measured at 228 nm. The percentage of ACE inhibition was calculated as follows: […]
where A is the absorbance at 228 nm of a reaction containing ACE without hydrolysate; B is the absorbance at 228 nm of a reaction containing ACE previously inactivated by adding HCl in the absence of hydrolysate; C is the absorbance at 228 nm of a reaction in the presence of ACE and hydrolysate; and D is the absorbance at 228 nm of a reaction containing ACE previously inactivated by adding HCl in the presence of hydrolysate. The IC50 was defined as the concentration of inhibitor required to inhibit 50% of the ACE activity. Specific inhibitory activity was calculated as ACE inhibition (%) divided by total peptide content (mg).

For data set [2], the system named is GI enzymes (pepsin and pancreatin). Kind of data set: In vitro gastrointestinal (GI) digestion of synthetic peptides, with ACE inhibitory activity and α-amino group content before and after. It is filed as in vitro ADME. Conditions: pepsin pH 2.0, 37° C., 1 h, then pancreatin pH 7.5, 37° C., 2 h (FIG. 6). The method, then:
It is necessary for ACE inhibitory peptides to retain its activity in GI tract so that it can be absorbed into the bloodstream, where the peptide inhibitors can show their hypotensive effect. In vitro gastrointestinal digestion provides an easy process to imitate antihypertensive activity of peptides under oral administration. […] In vitro GI digestion was simulated according to the method of Zhu et al. (2008) with some modifications. One milligram of each sample was dissolved in 0.5 ml of 0.1 M KCl-HCl, and the pH was adjusted to 2.0 with 6 M HCl. Pepsin (1% enzyme/substrate, w/w) was added, and the mixture was incubated in a shaking water bath at 37° C. for 1 h, and the pH was then adjusted to pH 7.5. […] ACE inhibitory activity and α-amino groups content of the peptides before and after in vitro GI digestion were measured. […]
ACE inhibitory activity assay was carried out according to the methods of Cushman and Cheung (1971) and Wu et al. (2002) with some modifications. […] Absorbance was measured at 228 nm. The percentage of ACE inhibition was calculated as follows: […]
Content of α-amino groups was performed according to Adler-Nissen (1979). […] The mixture was left at room temperature for 30 min before an absorbance at 420 nm was monitored. […] The content of α-amino groups was expressed as leucine equivalents.

A further data set concerns the target ACE (Homo sapiens, UniProt P12821). The settings on record: Wu et al. (2008); Balti et al. (2010); read-out: IC50 (ACE inhibition); cited from earlier work.
The mark [3] stands for this setting: synthesized in silico GI digestion products of VR9.

Marks after values point to notes of the source that are not given here. No end group written: not given here.

ACE, sequence (P12821 30-1306, species assumed): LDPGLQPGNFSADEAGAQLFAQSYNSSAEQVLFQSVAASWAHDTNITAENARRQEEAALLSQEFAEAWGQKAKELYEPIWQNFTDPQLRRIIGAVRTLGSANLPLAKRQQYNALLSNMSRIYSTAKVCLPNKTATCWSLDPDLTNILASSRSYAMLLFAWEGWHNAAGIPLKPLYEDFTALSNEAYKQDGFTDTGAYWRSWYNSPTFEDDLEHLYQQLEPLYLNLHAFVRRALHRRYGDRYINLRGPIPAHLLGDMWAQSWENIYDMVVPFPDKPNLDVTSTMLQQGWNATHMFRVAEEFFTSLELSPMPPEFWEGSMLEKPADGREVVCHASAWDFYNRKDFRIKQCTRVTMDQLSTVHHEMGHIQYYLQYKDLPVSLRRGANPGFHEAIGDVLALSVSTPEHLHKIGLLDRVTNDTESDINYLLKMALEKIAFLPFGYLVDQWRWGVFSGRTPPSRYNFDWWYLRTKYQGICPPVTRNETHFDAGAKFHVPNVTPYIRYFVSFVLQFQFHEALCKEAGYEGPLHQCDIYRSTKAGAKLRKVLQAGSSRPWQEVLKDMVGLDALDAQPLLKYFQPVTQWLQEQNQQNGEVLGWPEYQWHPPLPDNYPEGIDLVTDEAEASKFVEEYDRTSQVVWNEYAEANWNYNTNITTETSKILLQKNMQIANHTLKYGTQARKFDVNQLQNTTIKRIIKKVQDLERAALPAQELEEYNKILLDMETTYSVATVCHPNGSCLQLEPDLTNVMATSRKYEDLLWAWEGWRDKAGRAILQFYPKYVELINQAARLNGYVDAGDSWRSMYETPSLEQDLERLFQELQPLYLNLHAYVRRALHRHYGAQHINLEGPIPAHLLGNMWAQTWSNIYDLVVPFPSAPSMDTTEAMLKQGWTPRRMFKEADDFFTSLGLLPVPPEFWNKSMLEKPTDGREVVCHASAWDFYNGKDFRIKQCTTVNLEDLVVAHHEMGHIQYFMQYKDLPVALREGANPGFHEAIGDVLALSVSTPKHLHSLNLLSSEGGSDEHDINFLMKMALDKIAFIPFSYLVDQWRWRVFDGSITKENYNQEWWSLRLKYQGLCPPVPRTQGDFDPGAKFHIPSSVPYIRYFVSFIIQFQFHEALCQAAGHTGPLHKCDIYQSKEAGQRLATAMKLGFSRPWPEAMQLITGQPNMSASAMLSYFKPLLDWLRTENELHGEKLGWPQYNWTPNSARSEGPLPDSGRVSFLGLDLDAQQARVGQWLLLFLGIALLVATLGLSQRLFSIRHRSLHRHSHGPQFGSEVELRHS
angiotensin I-converting enzyme (ACE), sequence (P12821 30-1306, species assumed): as above

With NLLPHR [NLLPHR], in data set [1], the IC50 (in general, the concentration that inhibits the measured activity by half) is 1240 nM and the inhibition (commonly the change of the read-out against control, counted positive when it falls) at 1000 µg/mL is 94.9 ± 0.97%. Further, the “Decrease of ACE inhibitory activity after GI digestion” value in data set [2] was “approximately 30%”.

For the substance VIIF, the IC50 on ACE is 8700 nM.

Turning to “VIY [in silico GI digestion product of VR9]”, the “ACE inhibitory activity (%) At 1 mg/ml” value in data set [1] (setting [3]) is on record as 18.51 ± 1.12^a %.

Consider VIYSRINCR [VIYSRINCR], for which, in data set [1], the IC50 is 240 nM and the inhibition at 1000 µg/mL was determined as 97.02 ± 0.46%. Besides, the “Decrease of ACE inhibitory activity after GI digestion” value in data set [2] is reported as roughly 14%.

Turning to MAW, the IC50 at ACE was 16300 nM.

Consider INCR, for which the “ACE inhibitory activity (%) At 1 µg/ml” value in data set [1] (1 µg/ml, synthesized in silico GI digestion products of VR9) is listed as 29.10 ± 1.06^c %. Also, the “ACE inhibitory activity (%) At 1 mg/ml” value in data set [1] (setting [3]) is listed as 100.79 ± 0.71^c %.

For VSVVQYSR [VSVVQYSR], in data set [1], the IC50 is 950 nM and the inhibition at 1000 µg/mL was found to be 94.15 ± 0.2%.

Take VYAP: the IC50 at ACE was 6100 nM.
